# Results: patent US7256042B2, “Process for making hepatocytes from pluripotent stem cells” (Geron Corporation, priority 2000, dated 2007)
# Where two headings read alike, the source gives them in different places.
# Assays:
# [1] = tested on: hES cell derived embryoid bodies; test: Comparison of potential hepatocyte differentiation agents; type: cell-based, human; conditions: for Induction of hepatocyte phenotype: EBs 4 days in suspension, replated on plates coated with collagenase 1, cultured with each compound for 6 days, analogs at 5 mM; for Effect on hepatocyte differentiation (in words): concentration of 5 mM; as to Induction of hepatocyte phenotype: key: +: Causes hepatocyte differentiation and selective elimination of other cell types; −: No inductive effect; ±: Mild inductive effect; may allow growth or survival of other cell types
# Method: (§1) The effect of sodium butyrate was compared with other potential hepatocyte differentiation agents in a similar protocol. Embryoid bodies were cultured in suspension for 4 days, and then replated on plates coated with collagenase 1. The cells were then cultured in the presence of each compound for 6 days.
# [2] = tested on: hES cell derived embryoid body cells; test: Immunocytochemistry of embryoid body cells cultured 4 days after plating (Example 1)
# Method: Confluent monolayer cultures of hES cells on or off feeder cells were harvested by incubating in collagenase for 15-20 min, following which the cells are scraped from the plate. The cells were then dissociated into clusters and plated in non-adherent cell culture plates (Costar) in a medium composed of 80% KO DMEM (Gibco) and 20% non-heat-inactivated FBS (Hyclone), supplemented with 1% non-essential amino acids, 1 mM glutamine, 0.1 mM β-mercaptoethanol. The cells were seeded at a 1:2 ratio in 2 mL medium per well (6 well plate). The EBs were fed every other day by the addition of 2 mL of medium per well. When the volume of medium exceeded 4 mL/well, the EBs were collected and resuspended in fresh medium. After 4-8 days in suspension, the EBs were plated onto a substrate and allowed to differentiate further.
# (§2) The fixed cells were rinsed with PBS twice and blocked for 1 hour in 10% goat serum in PBS. They were then incubated in primary antibody diluted in 10% goat serum and PBS for 2 h. Antibody to albumin, alpha fetoprotein (AFP) (Sigma) and α1-antitrypsin (OEB Biosciences Inc.) were diluted at 1:500, cytokeratin, 8, 18 and 19, desmin, (Neomarkers), vimentin (Dako) and SMA (Sigma) were diluted at 1:200. Cells were then washed 3 times with PBS and incubated in secondary antibody, which was FITC-conjugated anti-mouse IgG diluted 1:100 and Hoechst HH33258 (Sigma) at 1:1000 in 5% goat serum in PBS, and incubated for 1 h. The stained cells were then washed 3 times in PBS, and mounted in Vectashield™ (Vector Labs). Images were taken at 10× and 40× using a Nikon Labophot™ equipped with epifluorescence and a spot CCD camera.
# Embryoid bodies (EB) were prepared as described in the preceding section. After 5 days in suspension culture, they were harvested and plated on Growth Factor Reduced Matrigel® coated plates and in chamber slides (Nunc). One of the following three conditions was used in parallel: • medium containing 20% fetal bovine serum (FBS); • medium containing 20% FBS and 5 mM sodium butyrate (Sigma); • medium containing 20% FBS, 0.5% DMSO (ATCC), 4 μM dexamethazone (Sigma), 150 ng/ml insulin, 10 ng/ml EGF, 600 nM glucagon (Sigma). In each case, the medium was exchanged every day, and cells were fixed for immunocytochemistry on day 4 after plating.
# hES cells [3] = test: Direct differentiation Protocol 7, cell morphology (FIG. 5); type: cell-based, human; conditions: 4 days in SR medium containing butyrate
# Method: hES cells undergo the Direct Differentiation protocol detailed earlier, making the adjustments to culture conditions shown in Table 12. Hepatocyte Culture Medium is purchased from Clonetics; Strom's Medium is prepared as described in Runge et al., Biochem. Biophys. Res. Commun. 265:376, 1999. The cell populations obtained are assessed by immunocytochemistry and enzyme activity.
# Left column: 10×magnification; Right column: 40×magnification. By 4 days in the presence of butyrate, more than 80% of cells in the culture are large in diameter, containing large nuclei and granular cytoplasm (Row A). After 5 days in SR medium, the cells were switched to HCM. Two days later, many cells are multinucleated, and have a large polygonal shape (Row B). By 4 days in HCM, multinucleated polygonal cells are common, and have a darker cytosol (Row C), by which criteria they resemble freshly isolated human adult hepatocytes (Row D) or fetal hepatocytes (Row E).
# [4] = tested on: EBs generated from hES cells; conditions: 20% FBS + 5 mM Na-butyrate, with or without 1% DMSO, 6 days
# Method: as §2
# EBs were generated from hES cells in feeder-free conditions. After 4 days in suspension, the EBs were plated in 20% FBS medium supplemented with 5 mM Na-butyrate or 5 mM Na-butyrate and 1% DMSO. The EBs were plated on the following matrices: • 1. collagen I (0.03 mg/mL coated overnight at 37° C.) • 2. growth factor reduced Matrigel® (1:10, coated for 1 h at room temp) • 3. gelatin (1% coated for 2 h at 37° C.)
# After 6 days in Na-butyrate the cells were evaluated morphologically and using immunocytochemistry for hepatocyte markers.
# H9 hES cells = test: Differentiation of hES cells in feeder-free culture, morphology (Example 5); type: cell-based, human; conditions: feeder-free H9 hES cells on laminin, SR medium + 5 mM sodium butyrate, about six days after treatment
# Method: Undifferentiated hES colonies were passaged continuously in feeder-free conditions as follows. Cultures were incubated in 1 mg/mL collagenase for about 5 minutes at 37° C. The cells were then harvested by scraping the cells off the surface and dissociating them into small clumps. Cells were split at a 1:3 or 1:6 ratio, ˜55,000 cells/mL (17,000 cells/cm^2). The day after replating, colonies of undifferentiated cells could again be identified. Single cells in between the colonies were differentiated. Over the next few days, the undifferentiated cells were seen to proliferate and the colonies became large and compact. The differentiated cells in between the colonies also became more compact. The cells became confluent after 4-7 days of being fed daily with conditioned media. When the cells reached confluence, they were split once more.
# For this example, the H9 hES cells (p30+5) were maintained in feeder-free conditions for 30 days (5 passages) before differentiation. The undifferentiated cells were maintained on laminin and fed with MEF-conditioned medium, as described elsewhere in this disclosure. To induce differentiation, the conditioned medium was replaced with SR medium (without supplemental bFGF) containing 5 mM sodium butyrate.
# [5] = tested on: undifferentiated hES cells; test: Direct differentiation of hES cells without embryoid bodies, immunocytochemistry (Example 7); type: cell-based, human; conditions: 1% DMSO 4 days, then 2.5% Na-butyrate 6 days
# From the text: The undifferentiated hES cells were maintained in feeder-free conditions (on Matrigel® in MEF-CM). The strategy was to initiate a global differentiation process by adding the hepatocyte maturation factors DMSO or retanoic acid (RA) to a subconfluent culture. The cells are then induced to form hepatocyte-like cells by the addition of Na-butyrate.
# The hES cells were maintained in undifferentiated culture conditions for 2-3 days after splitting. At this time, the cells were 50-60% confluent and the medium was exchanged with unconditioned SR medium containing 1% DMSO. The cultures were fed daily with SR medium for 4 days and then exchanged into unconditioned SR medium containing 2.5% Na-butyrate. The cultures were fed daily with this medium for 6 days; at which time one half of the cultures were evaluated by immunocytochemistry. The other half of the cultures were harvested with trypsin and replated onto collagen, to further promote enrichment for hepatocyte lineage cells. Immunocytochemistry was then performed on the following day.
# [6] = tested on: Human ES cell derived embryoid bodies; conditions: 5 mM Na butyrate, with or without 1% DMSO, day 7
# [7] = tested on: hES cell derived embryoid bodies; test: Phenotype of embryoid body cells after 6 days with n-butyrate: immunocytochemistry, glycogen (PAS), BrdU (Example 2); type: cell-based, human; conditions: EBs on Matrigel, 20% FBS + 5 mM sodium n-butyrate
# Method: Cells were grown on chamber slides in the indicated growth medium, and labeled with 10 μM BrdU for 24 h. Cells were then fixed with 3:1 methanol: acetic acid for 30 minutes, and air-dried overnight in the dark. The fixed cells were rinsed once in PBS, and denatured in 0.07 N NaOH for 2 min followed by quick rinses in PBS pH 8.5 and pH7.4 several times. They were then blocked using 1.5% goat serum (Vector Labs) for 15 min, and incubated with anti BrdU antibody (Sigma) diluted 1:500 in 1.5% goat serum and 0.05% Tween™ 20 for 2 h. The samples were washed thrice in PBS, and then incubated with secondary antibody, which was biotinylated goat anti-mouse immunoglobulin (Vector Labs), at 10 μg/mL diluted in 1.5% horse serum for 30 min. […] Hoechst HO33258 stain (bisbenzimide, Sigma Cat. No. B2883) was mixed into the streptavidin solution at 2.5uM final concentration to stain all the nuclei.
# The medium was changed daily or every other day. There was a lot of cell death on day 1 followed by less cell death on the subsequent days.
# On the sixth day after plating in the differentiation agent, the cells were analyzed for expression of markers by RT-PCR and immunocytochemistry, following the procedures outlined earlier. Glycogen content in these cells was determined using periodic acid Schiff stain. The number of cells in S phase of cell cycle was determined by incubating the cells with 10 μM BrdU on day 5 after plating, and subsequently staining with anti-BrdU antibody 24 hours later.
# hES cells [8] = test: Phenotype of hepatocyte lineage cells made using sodium n-butyrate or Trichostatin A; type: cell-based, human; conditions: 5 mM sodium n-butyrate; 100 nM Trichostatin A
# Method: as §1
# At 75-100 nM, Trichostatin A appeared to both induce hepatocyte differentiation and select against survival of other cell types.
# [9] = EBs on Growth Factor Reduced Matrigel, day 4, 20% FBS + 5 mM sodium butyrate, or 20% FBS + 0.5% DMSO + dexamethazone, insulin, EGF, glucagon
# [10] = Trypsinization and replating onto collagen, stained the following day
smiles,measurement,setting,value
CCCCCC(=O)O [Caproic acid],Induction of hepatocyte phenotype,[1],−
CC(C)C(=O)O [Isobutyric acid],Induction of hepatocyte phenotype,[1],±
same,Effect on hepatocyte differentiation (in words),[1]; 6 days,effective in causing hepatocyte differentiation
[Cl-].[Na+] [NaCl],Effect on hepatocyte differentiation (in words),[1]; 6 days,no effect
CCC(=O)O [Propionic acid],Effect on hepatocyte differentiation (in words),[1]; 6 days,effective in causing hepatocyte differentiation
CCCC(=O)[O-].[Na+] [Sodium n-butyrate],Cell survival and morphology (in words),"[2]; 20% FBS + 5 mM sodium butyrate, 1 day after plating",fairly homogenous population of cells survived
same,"AFP, cells showing positive staining",[2]; [9],did not express AFP
same,"Albumin, percentage of cells showing positive staining",[2]; [9],about 30%
same,"CK8, percentage of cells showing positive staining",[2]; [9],100% + ve
same,"CK18, percentage of cells showing positive staining",[2]; [9],100% + ve
same,"CK19, percentage of cells showing positive staining",[2]; [9],100% + ve
same,"SMA, percentage of cells showing positive staining",[2]; [9],<1% + ve
same,"Vimentin, percentage of cells showing positive staining",[2]; [9],100% + ve
same,"α1-antitrypsin, percentage of cells showing positive staining",[2]; [9],>60% + ve
same,"Albumin, percentage of cells showing positive staining","[2]; EBs on Growth Factor Reduced Matrigel, day 4, 20% FBS + 5 mM sodium butyrate, or 20% FBS + 0.5% DMSO + dexamethazone, insulin, EGF, glucagon, listed as Na butyrate",30% + ve*
same,Cultured embryoid body derived cells released from the substrate into the medium,[2]; first day of culture with the differentiation agent,about 90%
same,"Cells large in diameter, containing large nuclei and granular cytoplasm",hES cells [3]; listed as butyrate,more than 80%
same,"Cells large in diameter, containing large nuclei and granular cytoplasm",hES cells [3]; listed as sodium n-butyrate,More than 80%
same,"Cytokeratin 18, percentage of cells positive",[4]; Collagen I,100%
same,"Cytokeratin 19, percentage of cells positive",[4]; Collagen I,100%
same,"Glycogen, percentage of cells positive",[4]; Collagen I,>60%
same,"albumin, percentage of cells positive",[4]; Collagen I,79%
same,"α1-antitrypsin, percentage of cells positive",[4]; Collagen I,>90%
same,"α-fetoprotein, percentage of cells positive",[4]; Collagen I,0
same,"Cytokeratin 18, percentage of cells positive",[4]; Gelatin,100%
same,"Cytokeratin 19, percentage of cells positive",[4]; Gelatin,100%
same,"Glycogen, percentage of cells positive",[4]; Gelatin,>60%
same,"albumin, percentage of cells positive",[4]; Gelatin,50%
same,"α1-antitrypsin, percentage of cells positive",[4]; Gelatin,>90%
same,"α-fetoprotein, percentage of cells positive",[4]; Gelatin,0
same,"Cytokeratin 18, percentage of cells positive",[4]; Matrigel,100%
same,"Cytokeratin 19, percentage of cells positive",[4]; Matrigel,100%
same,"Glycogen, percentage of cells positive",[4]; Matrigel,>60%
same,"albumin, percentage of cells positive",[4]; Matrigel,56%
same,"α1-antitrypsin, percentage of cells positive",[4]; Matrigel,>90%
same,"α-fetoprotein, percentage of cells positive",[4]; Matrigel,0
same,Cell morphology (in words),H9 hES cells,contained many patches of hepatocyte-like cells
same,Effect on hepatocyte differentiation (in words),[1]; 6 days,equally effective
same,"Cytokeratin 8, % positive",[5]; No trypsinization,>80%
same,"Cytokeratin 18, % positive",[5]; No trypsinization,>80%
same,"Cytokeratin 19, % positive",[5]; No trypsinization,>80%
same,"albumin, % positive",[5]; No trypsinization,11%
same,"glycogen, % positive",[5]; No trypsinization,0%
same,"α1-antitrypsin, % positive",[5]; No trypsinization,>80%
same,"α-fetoprotein, % positive",[5]; No trypsinization,0%
same,"Cytokeratin 8, % positive",[5]; [10],45%
same,"Cytokeratin 18, % positive",[5]; [10],30%
same,"Cytokeratin 19, % positive",[5]; [10],30%
same,"albumin, % positive",[5]; [10],63%
same,"glycogen, % positive",[5]; [10],>50%
same,"α1-antitrypsin, % positive",[5]; [10],>80%
same,"α-fetoprotein, % positive",[5]; [10],0%
same,"Albumin, percentage of cells staining",[6]; Gelatin coated plates,56%
same,"CK18, percentage of cells staining",[6]; Gelatin coated plates,100%
same,"CK19, percentage of cells staining",[6]; Gelatin coated plates,100%
same,"Glycogen, percentage of cells staining",[6]; Gelatin coated plates,>60%
same,"α1-antitrypsin, percentage of cells staining",[6]; Gelatin coated plates,>90%
same,"α-fetoprotein, percentage of cells staining",[6]; Gelatin coated plates,0
same,"Albumin, percentage of cells staining",[6]; Matrigel coated plates,50%
same,"CK18, percentage of cells staining",[6]; Matrigel coated plates,100%
same,"CK19, percentage of cells staining",[6]; Matrigel coated plates,100%
same,"Glycogen, percentage of cells staining",[6]; Matrigel coated plates,>60%
same,"α1-antitrypsin, percentage of cells staining",[6]; Matrigel coated plates,>90%
same,"α-fetoprotein, percentage of cells staining",[6]; Matrigel coated plates,0
same,"Albumin, % positive cells",[7]; day 6,55%
same,"CK8, % positive cells",[7]; day 6,100%
same,"CK18, % positive cells",[7]; day 6,100%
same,"CK19, % positive cells",[7]; day 6,100%
same,"Desmin, % positive cells",[7]; day 6,0%
same,"Glycogen staining (Periodic Acid Schiff), % positive cells",[7]; day 6,60%
same,"α1-antitrypsin, % positive cells",[7]; day 6,90%
same,"α-fetoprotein, % positive cells",[7]; day 6,0%
same,"BrdU staining, % positive cells","[7]; 10 μM BrdU on day 5, stained 24 hours later",16%
same,"CK18, positive cells",hES cells [8],100%
same,"CK19, positive cells",hES cells [8],100%
same,"Glycogen staining, positive cells",hES cells [8],>60%
same,"albumin, positive cells",hES cells [8],62%
same,"α1-antitrypsin, positive cells",hES cells [8],90%
same,"α-fetoprotein, positive cells",hES cells [8],0%
CC(/C=C/C(=O)NO)=C\[C@@H](C)C(=O)c1ccc(N(C)C)cc1 [Trichostatin A],Concentration range found ineffective,"[1]; EB-derived cells, 6 days",10 to 50 nM
same,Concentration range found to be toxic to cells,"[1]; EB-derived cells, 6 days",2500 to 100000 nM
same,Concentration range that induces hepatocyte differentiation and selects against survival of other cell types,"[1]; EB-derived cells, 6 days",75 to 100 nM
same,Induction of hepatocyte phenotype,[1],+
same,"CK18, positive cells",hES cells [8],>70%
same,"CK19, positive cells",hES cells [8],>90%
same,"Glycogen staining, positive cells",hES cells [8],>50%
same,"albumin, positive cells",hES cells [8],41%
same,"α1-antitrypsin, positive cells",hES cells [8],81%
CCCCC(=O)O [Valeric acid],Induction of hepatocyte phenotype,[1],−
CCCC(=O)O [n-Butyric Acid],Effect on hepatocyte differentiation (in words),[1]; 6 days,equally effective
CCC(O)C(=O)O (stereo not drawn) [α-hydroxybutyric acid],Induction of hepatocyte phenotype,[1],−
CC(O)CC(=O)O (stereo not drawn) [β-hydroxybutyric acid],Induction of hepatocyte phenotype,[1],−
